ChEMBL document CHEMBL1201862, “PubChem BioAssay data set” (2004)
The source made the active and inactive calls.

Experiments:
[1] = Shn3 3'UTR reporter inhibitors, dose response, cell-based, Clone20 osteoblasts, firefly luciferase, cherry-picked (AID 624132); type: functional;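 further: firefly luciferase luminescence from reporter carrying the Shn3 3'UTR in osteoblasts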
[2] = HepG2 cell cytotoxicity, dose response, cytotoxicity control for Shn3 inhibitor project, CellTiter-Glo, cherry-picked (AID 624134); type: functional, cell-based
[3] = molecular target: SWI/SNF-related matrix-associated actin-dependent regulator of chromatin subfamily A member 2 (Homo sapiens, UniProt P51531); assay: Luminescence-based cell-based high throughput dose response assay to identify activators of the function of SWI/SNF related, matrix associated, actin dependent regulator of chromatin, subfamily a, member 2 (SMARCA2, BRM).; type: functional
[4] = Counterscreen for activators of the function of SWI/SNF related, matrix associated, actin dependent regulator of chromatin, subfamily a, member 2 (SMARCA2, BRM): Luminescence-based cell-based high throughput dose response assay to identify non-selective compounds using the VP16 reporter assay.; type: functional
[5] = HeLa 2N DNA content increase, dose response, cell-based, IC50 (AID 1117349); type: functional
[6] = SNU-C1 cell viability reduction, dose response, CellTiter-Glo luminescence (AID 1117323); type: functional, cell-based
[7] = HeLa 4N DNA content increase, dose response, cell-based, IC50 (AID 1117351); type: functional
[8] = cytotoxicity toward HT-29 cells – cell-based, CellTiter-Glo luminescence, IC50, dose response (AID 1117330); type: functional
[9] = CellTiter-Glo luminescent dose response of DLD-1 viability loss (AID 1117352); type: functional
[10] = molecular target: T1, Corticotropin-releasing factor receptor 2/Corticotropin-releasing factor-binding protein (Homo sapiens, UniProt P24387+Q13324); assay: Dose Response confirmation of uHTS hits for small molecule antagonists of the CRF-binding protein and CRF-R2 receptor complex.; type: functional; conditions: read-out: IC50_Mean
T1 sequence (Q13324 whole entry): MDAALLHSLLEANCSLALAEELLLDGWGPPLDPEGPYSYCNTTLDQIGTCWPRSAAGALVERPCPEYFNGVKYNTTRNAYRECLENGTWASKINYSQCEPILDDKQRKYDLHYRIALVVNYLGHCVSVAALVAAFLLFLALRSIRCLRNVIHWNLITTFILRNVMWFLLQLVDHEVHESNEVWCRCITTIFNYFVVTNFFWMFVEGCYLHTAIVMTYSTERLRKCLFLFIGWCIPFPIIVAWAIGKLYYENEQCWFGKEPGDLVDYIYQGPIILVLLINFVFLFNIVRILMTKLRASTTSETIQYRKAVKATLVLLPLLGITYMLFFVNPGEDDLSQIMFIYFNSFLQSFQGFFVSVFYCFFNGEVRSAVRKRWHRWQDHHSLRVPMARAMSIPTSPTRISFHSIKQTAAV
T1 sequence (P24387 whole entry): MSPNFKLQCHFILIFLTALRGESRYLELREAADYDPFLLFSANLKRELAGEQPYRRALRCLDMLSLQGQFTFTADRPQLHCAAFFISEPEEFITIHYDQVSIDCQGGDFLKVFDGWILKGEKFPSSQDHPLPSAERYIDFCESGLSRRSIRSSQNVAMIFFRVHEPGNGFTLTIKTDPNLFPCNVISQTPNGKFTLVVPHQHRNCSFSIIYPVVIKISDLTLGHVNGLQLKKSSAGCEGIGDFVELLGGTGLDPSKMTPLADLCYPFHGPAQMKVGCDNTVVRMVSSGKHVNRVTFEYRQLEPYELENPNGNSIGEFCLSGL

[11] = molecular target: T1, Corticotropin-releasing factor receptor 2/Corticotropin-releasing factor-binding protein; assay: activators of CRF receptor 2 with binding protein – uHTS hits, confirmation (AID 602473); type: functional; conditions: read-out: EC50_Mean
[12] = CRF-BP/CRF-R2 complex antagonists, dose response, cell-based, uHTS hits, 384-well (AID 651639); type: functional, Homo sapiens; conditions: read-out: IC50_Mean
[13] = molecular target: T2, Heat shock factor protein 1 (Mus musculus, UniProt P38532); assay: inhibition of MG132-induced HSE-luciferase signal, confirmation, cell-based, NIH3T3, luminescence, dose retest (AID 2382); type: functional;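 further: NIH3T3 fibroblasts with HSF1-driven luciferase reporter stressed by proteasome inhibitor MG132; luminescence from HSF1-driven luciferase expression after 8 hours of MG132 stress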
T2 sequence (P38532 whole entry): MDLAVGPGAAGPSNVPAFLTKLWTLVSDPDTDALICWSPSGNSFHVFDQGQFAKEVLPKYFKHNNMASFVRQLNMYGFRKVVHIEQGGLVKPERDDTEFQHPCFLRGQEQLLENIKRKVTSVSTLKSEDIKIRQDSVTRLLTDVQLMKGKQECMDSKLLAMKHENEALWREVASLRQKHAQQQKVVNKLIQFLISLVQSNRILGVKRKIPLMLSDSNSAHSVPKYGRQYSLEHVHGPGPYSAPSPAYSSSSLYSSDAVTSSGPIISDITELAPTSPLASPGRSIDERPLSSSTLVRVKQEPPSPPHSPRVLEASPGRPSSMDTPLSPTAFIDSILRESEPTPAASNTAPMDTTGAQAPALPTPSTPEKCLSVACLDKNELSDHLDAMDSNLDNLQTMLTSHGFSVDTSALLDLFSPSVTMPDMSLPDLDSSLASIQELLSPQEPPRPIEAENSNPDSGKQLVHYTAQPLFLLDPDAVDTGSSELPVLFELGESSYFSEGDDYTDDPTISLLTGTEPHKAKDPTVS

[14] = Counterscreen for […] of the human trace amine associated receptor 1 (TAAR1): Fluorescence-based cell-based high throughput dose response assay to identify nonselective Ga16 agonists.; type: functional
[15] = Counterscreen for antagonists of the human trace amine associated receptor 1 (hTAAR1): Fluorescence-based cell-based high throughput dose response assay to identify nonselective Ga16 antagonists.; type: functional
[16] = molecular target: T3, Methionyl-tRNA synthetase, putative (Trypanosoma brucei brucei, UniProt Q38C91); type: functional, Trypanosoma brucei brucei strain 927/4 GUTat10.1
T3 sequence (Q38C91 whole entry): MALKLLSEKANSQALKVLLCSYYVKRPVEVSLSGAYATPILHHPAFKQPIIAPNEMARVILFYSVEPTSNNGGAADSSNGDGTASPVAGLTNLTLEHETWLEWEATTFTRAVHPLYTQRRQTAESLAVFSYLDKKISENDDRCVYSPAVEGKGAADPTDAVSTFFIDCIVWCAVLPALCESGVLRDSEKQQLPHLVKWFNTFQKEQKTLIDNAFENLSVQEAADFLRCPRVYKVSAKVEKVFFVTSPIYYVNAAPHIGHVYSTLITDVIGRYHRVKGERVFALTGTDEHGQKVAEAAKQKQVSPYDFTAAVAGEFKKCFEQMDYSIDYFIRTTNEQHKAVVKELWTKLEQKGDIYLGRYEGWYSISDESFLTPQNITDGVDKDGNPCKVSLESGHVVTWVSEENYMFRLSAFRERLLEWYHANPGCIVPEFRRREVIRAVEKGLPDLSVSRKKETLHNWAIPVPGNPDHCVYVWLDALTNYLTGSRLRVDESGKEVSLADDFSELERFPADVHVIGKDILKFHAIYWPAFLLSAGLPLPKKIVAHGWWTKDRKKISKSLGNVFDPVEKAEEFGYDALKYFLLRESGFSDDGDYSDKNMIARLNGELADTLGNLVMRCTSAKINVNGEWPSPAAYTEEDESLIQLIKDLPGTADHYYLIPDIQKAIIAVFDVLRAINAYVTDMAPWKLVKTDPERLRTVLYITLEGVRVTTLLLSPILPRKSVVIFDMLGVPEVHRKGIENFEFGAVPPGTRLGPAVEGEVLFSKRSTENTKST

[17] = Counterscreen for inhibitors of Trypanosoma brucei methionyl tRNA synthetase (MetRS): Luminescence-based cell-based high throughput dose response assay to identify compounds that are cytotoxic to Jurkat human T lymphocyte cells.; type: functional
[18] = molecular target: T3, Methionyl-tRNA synthetase, putative; type: functional, Trypanosoma brucei brucei strain 927/4 GUTat10.1; remark: listed apart in the source
cells = type: functional, cell-based
[19] = molecular target: T4, Nuclear receptor subfamily 0 group B member 1 (Homo sapiens, UniProt P51843); type: functional, cell-based;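 further: HEK293T cells transfected with SF-1 and DAX-1 plus StAR promoter luciferase reporter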
T4 sequence (P51843 whole entry): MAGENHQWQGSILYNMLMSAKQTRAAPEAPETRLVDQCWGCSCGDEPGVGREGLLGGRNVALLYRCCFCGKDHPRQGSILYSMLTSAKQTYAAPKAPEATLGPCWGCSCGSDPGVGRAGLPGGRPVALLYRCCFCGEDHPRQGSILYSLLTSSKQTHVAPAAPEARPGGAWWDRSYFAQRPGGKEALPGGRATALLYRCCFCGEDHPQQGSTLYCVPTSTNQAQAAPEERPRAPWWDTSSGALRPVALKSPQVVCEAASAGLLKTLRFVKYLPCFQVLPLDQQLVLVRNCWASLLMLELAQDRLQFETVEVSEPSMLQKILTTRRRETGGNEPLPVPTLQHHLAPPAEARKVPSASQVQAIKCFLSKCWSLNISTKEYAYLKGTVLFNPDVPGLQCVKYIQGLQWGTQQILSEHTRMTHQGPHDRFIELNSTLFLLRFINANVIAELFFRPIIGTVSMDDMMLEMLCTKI

Beta-lactamase [20] = molecular target: Beta-lactamase (Pseudomonas aeruginosa, UniProt Q79MP6);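 further: biochemical dose-response test of metallo-beta-lactamase enzyme inhibition, read out by epi-absorbance; purified recombinant IMP-1 metallo-beta-lactamase with nitrocefin as substrate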
[21] = molecular target: T5, Calpain-2 catalytic subunit (Sus scrofa, UniProt P43367); assay: pig calpain II inhibitor potency, dose response, biochemical, fluorogenic peptide substrate (AID 1420); type: functional
T5 sequence (P43367 whole entry): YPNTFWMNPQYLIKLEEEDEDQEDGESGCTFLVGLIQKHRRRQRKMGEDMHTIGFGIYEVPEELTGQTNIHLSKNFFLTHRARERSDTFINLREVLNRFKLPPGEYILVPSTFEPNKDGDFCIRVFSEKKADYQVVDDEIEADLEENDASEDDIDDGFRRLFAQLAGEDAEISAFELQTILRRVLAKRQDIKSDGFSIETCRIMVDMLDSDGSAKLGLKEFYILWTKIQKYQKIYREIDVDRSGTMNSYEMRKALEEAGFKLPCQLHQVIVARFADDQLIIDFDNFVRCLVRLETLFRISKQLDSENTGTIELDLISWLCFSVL

Beta-lactamase [22] = molecular target: Beta-lactamase (Salmonella choleraesuis (strain SC-B67), UniProt Q5J463)
ORF 73 = molecular target: T6, ORF 73 (Human herpesvirus 8, UniProt O40947); assay: inhibitors of C-LANA binding to LBS DNA, dose response, biochemical, fluorescence polarization, cherry-picked samples (AID 504725); design: species or system Human gammaherpesvirus 8;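 further: fluorescence polarization of a labeled DNA duplex reporting LANA DNA binding; potency is for inhibitors that block LANA binding to the DNA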
T6 sequence (O40947 whole entry): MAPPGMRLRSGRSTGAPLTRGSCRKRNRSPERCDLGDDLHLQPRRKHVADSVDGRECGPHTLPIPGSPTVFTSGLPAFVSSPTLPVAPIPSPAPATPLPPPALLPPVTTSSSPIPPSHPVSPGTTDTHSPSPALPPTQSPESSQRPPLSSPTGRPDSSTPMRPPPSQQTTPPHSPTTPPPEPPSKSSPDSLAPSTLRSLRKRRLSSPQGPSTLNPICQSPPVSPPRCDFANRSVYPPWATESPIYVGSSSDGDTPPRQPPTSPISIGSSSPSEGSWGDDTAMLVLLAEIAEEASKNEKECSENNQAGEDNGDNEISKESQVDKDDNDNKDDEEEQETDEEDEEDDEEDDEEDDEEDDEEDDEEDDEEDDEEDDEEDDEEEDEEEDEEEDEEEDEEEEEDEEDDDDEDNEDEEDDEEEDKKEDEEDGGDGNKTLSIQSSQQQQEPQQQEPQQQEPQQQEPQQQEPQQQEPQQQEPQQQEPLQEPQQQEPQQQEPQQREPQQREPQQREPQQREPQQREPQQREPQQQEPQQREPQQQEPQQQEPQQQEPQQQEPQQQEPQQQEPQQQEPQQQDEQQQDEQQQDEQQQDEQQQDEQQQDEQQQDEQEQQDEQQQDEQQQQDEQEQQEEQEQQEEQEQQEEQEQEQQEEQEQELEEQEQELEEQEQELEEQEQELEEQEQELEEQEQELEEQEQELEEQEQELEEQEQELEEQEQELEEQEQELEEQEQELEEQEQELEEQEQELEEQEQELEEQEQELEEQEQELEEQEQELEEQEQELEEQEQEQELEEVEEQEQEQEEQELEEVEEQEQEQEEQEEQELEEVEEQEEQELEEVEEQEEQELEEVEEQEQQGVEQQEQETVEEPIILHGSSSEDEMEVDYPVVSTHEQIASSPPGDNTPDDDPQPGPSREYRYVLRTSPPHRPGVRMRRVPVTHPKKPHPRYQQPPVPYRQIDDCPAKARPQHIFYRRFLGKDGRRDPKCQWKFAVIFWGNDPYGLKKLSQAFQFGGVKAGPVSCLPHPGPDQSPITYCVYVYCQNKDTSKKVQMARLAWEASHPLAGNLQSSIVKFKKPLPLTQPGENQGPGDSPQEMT

Protein S100-A4 = Protein S100-A4 (Homo sapiens, UniProt P26447); assay: S100A4-myosin IIA binding inhibitor potency, dose response, biochemical, fluorescence polarization, cherry-picked hits (AID 687001); type: functional
Chain of Protein S100-A4 (P26447 whole entry): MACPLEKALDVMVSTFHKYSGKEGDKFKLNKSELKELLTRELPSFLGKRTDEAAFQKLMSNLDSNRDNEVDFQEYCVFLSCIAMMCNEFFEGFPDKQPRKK

Chain of SWI/SNF-related matrix-associated actin-dependent regulator of chromatin subfamily A member 2 (P51531 whole entry): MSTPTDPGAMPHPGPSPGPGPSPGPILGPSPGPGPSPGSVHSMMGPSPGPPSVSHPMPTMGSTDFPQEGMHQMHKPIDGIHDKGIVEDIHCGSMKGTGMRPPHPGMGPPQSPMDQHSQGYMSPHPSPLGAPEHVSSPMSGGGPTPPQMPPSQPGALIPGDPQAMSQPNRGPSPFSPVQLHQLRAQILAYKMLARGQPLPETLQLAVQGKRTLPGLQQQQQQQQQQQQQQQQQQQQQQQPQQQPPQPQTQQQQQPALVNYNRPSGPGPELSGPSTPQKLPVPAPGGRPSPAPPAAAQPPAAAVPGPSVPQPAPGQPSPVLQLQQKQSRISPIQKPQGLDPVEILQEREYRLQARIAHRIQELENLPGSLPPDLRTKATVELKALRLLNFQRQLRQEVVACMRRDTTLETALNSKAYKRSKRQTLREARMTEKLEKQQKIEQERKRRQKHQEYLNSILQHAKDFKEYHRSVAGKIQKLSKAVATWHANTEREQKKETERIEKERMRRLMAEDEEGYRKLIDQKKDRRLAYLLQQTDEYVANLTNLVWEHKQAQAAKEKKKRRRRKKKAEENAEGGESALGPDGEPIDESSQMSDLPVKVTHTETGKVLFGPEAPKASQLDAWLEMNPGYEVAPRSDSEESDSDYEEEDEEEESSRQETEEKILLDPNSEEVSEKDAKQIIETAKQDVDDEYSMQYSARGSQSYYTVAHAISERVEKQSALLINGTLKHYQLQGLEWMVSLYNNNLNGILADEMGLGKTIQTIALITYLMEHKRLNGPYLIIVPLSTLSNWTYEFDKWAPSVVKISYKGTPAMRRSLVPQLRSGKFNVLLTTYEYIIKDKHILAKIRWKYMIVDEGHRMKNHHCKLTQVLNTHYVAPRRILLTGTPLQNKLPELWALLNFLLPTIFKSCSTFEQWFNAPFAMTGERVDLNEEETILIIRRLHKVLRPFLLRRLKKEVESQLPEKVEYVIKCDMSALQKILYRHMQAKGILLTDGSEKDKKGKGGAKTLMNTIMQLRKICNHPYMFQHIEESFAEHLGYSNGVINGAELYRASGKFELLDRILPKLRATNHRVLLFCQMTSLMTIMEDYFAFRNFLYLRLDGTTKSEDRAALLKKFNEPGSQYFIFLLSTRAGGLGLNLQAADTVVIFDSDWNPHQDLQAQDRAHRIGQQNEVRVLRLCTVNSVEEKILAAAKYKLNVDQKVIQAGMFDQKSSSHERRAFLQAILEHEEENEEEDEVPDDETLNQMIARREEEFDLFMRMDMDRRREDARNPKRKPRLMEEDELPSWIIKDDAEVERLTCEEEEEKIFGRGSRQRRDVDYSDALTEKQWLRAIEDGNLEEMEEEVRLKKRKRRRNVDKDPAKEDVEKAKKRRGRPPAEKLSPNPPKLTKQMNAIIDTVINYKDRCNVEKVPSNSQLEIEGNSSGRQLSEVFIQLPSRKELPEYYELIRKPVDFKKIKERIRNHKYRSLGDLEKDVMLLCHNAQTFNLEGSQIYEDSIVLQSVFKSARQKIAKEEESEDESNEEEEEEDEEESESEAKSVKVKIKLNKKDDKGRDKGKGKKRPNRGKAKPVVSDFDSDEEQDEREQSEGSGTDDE
Chain of Beta-lactamase (Pseudomonas aeruginosa, UniProt Q79MP6) (Q79MP6 whole entry): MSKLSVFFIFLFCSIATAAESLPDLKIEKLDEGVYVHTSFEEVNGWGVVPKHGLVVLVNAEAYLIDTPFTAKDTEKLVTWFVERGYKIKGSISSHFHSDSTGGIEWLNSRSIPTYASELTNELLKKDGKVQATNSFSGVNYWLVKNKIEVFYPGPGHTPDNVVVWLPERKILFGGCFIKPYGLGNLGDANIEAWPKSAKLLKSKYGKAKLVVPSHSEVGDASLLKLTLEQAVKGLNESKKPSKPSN
Chain of Beta-lactamase (Salmonella choleraesuis (strain SC-B67), UniProt Q5J463) (Q5J463 whole entry): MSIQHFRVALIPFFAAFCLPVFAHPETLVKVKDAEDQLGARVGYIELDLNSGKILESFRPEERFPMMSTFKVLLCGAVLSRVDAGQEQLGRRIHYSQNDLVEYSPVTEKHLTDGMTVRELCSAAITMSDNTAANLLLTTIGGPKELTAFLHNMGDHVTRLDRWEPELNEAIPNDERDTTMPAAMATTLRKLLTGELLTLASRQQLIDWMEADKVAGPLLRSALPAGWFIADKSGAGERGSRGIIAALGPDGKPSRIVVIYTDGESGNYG

CC(C)n1c(/C=C/[C@@H](O)C[C@@H](O)CC(=O)O)c(-c2ccc(F)cc2)c2ccccc21 [FLUVASTATIN SODIUM]
AC50 [1]: 2.4 µM (active) | AC50 [2]: > 70 µM (inactive) | EC50 [3]: > 91.1 µM (inactive) | EC50 [4]: > 91.1 µM (inactive) | IC50 [5]: > 10 µM (inactive) | IC50 [6]: > 20 µM (inactive) | IC50 [7]: > 10 µM (inactive) | IC50 [8]: > 20 µM (inactive) | IC50 [9]: > 20 µM (inactive)

CC1CC(C)CN(C(=O)CSc2nc(Cc3cccs3)nc3ccccc23)C1 (stereo not drawn)
IC50 [10]: 6.34 µM (active) | EC50 [11]: > 53 µM (inactive) | IC50 [12]: 5.99 µM (active)

Cc1coc(NC(=O)CSc2nc(-c3ccc(Cl)cc3)cc(C(F)(F)F)c2C#N)n1
EC50 [13]: > 195 µM (not active) | EC50 [14]: > 29.9 µM (inactive) | IC50 [15]: > 29.9 µM (inactive)

Cc1ccc(CNC(=O)CSc2n[nH]c3c4ccccc4nc-3n2)cc1
IC50 [16]: 119 µM (inactive) | IC50 [17]: 83.3 µM (inactive) | IC50 [18]: 3.38 µM (active)

COc1cc2ccccc2cc1C(=O)Nc1cc(C)ccn1
IC50 (cells): > 67.6 µM (inactive) | IC50 [19]: > 67.6 µM (inactive)

CCOC(=O)C1CCCN(c2ccc([N+](=O)[O-])c3nonc23)C1 (stereo not drawn)
IC50 (Beta-lactamase [20]): 37.1 µM (inactive) | IC50 [21]: 19 µM (not active) | IC50 (Beta-lactamase [22]): 10.5 µM (inactive) | AC50 (ORF 73): 4.35 µM (active) | AC50 (Protein S100-A4): 0.505 µM (active)

CCOC(=O)Oc1ccc2c(=O)c(Oc3cccc(C)c3)coc2c1
IC50 [10]: 0.61 µM (active) | EC50 [11]: > 53 µM (inactive) | IC50 [12]: > 20 µM (inactive)
